Experiment [1] is described as follows: ACTH and β-endorphin secretion, general procedure of Example III (in vitro / in vivo not separated). The text has this: (§1) The urotensin peptide from Example II is examined for effects on the secretion of ACTH and β-endorphin in vitro and also examined in vivo. A low potency (4%) to stimulate the secretion of ACTH and β-endorphinby cultured rat pituitary cells is observed. The peptide also stimulates ACTH and B-END-LI secretion in vivo in several rat preparations. UI activity of the peptide is evident in the isolated rat hind limb assay, Lederis, K. et al. "Effects and Assay of Urotensin I on the Perfused Hind Limb of the Rat", Gen. Comp. Endocrinol., 24:10-16, 1974. In vivo hypotensive activity of extracted peptides is measured in anaesthetized rats, Lederis, K. and Medakovic, M. "Pharmacological Observations on the Hypotensive Actin of Extracts of Teleost Fish Urophyses (Urotensin I) in the Rat", Br. J. Pharmacol. 51:315-324, 1974, and in anaesthetized dogs, MacCannell and Lederis, "Dilatation of the Mesenteric Vascular Bed of the Dog Produced by a Peptide, Urotensin I", J. Pharm. Exp. Ther. 203:38-46, 1977.

The nature of experiment [2]: Vasodilatory-hypotensive activity, general procedure of Example III (species not separated). The class given is in vivo. As to conditions: for mesenteric blood flow / systemic blood pressure / vasodilatory-hypotensive activity: general procedure of Example III; for vasodilatory-hypotensive activity: mammalian.
From the text: as §1

The test system of experiment [3] is cultured rat pituitary cells. Briefly: Secretion of ACTH and β-endorphin by cultured rat pituitary cells. As to conditions: relative potency, reference not named. The class given is cell-based.
From the text: as §1

The nature of experiment [4]: ACTH and B-END-LI secretion in vivo in several rat preparations.
From the text: as §1

Experiment [5] concerns Perfused Hind Limb of the Rat. Briefly: Isolated rat hind limb assay (UI activity).
From the text: as §1

Experiment [6] can be described thus: In vivo hypotensive activity in anaesthetized rats. As to conditions: anaesthetized rat.
From the text: as §1

For a further experiment, the system named is mesenteric vascular bed. Briefly: In vivo hypotensive activity / mesenteric vasodilatation in anaesthetized dogs. Set-up: species or system dog.
From the text: as §1
In the pentobarbital-anaesthetized dog, the threshold dose of Maggy UI for mesenteric vasodilatation, when given close arterially into the cephalic mesenteric A, is between 0.001 and 0.01 μg.

The subject of the next experiment is teleost fish pituitaries. As to the kind of experiment: Secretion of ACTH by teleost fish pituitaries.
In experiment [7] the test system is isolated mesenteric artery strips of the rat. Briefly: Isolated mesenteric artery strips of the rat. From the text: The synthetic peptides described above with respect to Example I are generally equipotent with the extracted and purified peptide, as tested in the anaesthetized dog in vivo and when tested in isolated mesenteric artery strips of the rat according to Muramatsu, I., Miura, A., Fujiwara, M. and Lederis, K., Gen. Comp. Endocrinol. 45:446-452, 1981.

Setting [8] is: pentobarbital-anaesthetized dog, doses of 0.1-0.5 μg.

For the substance “Ac-SEEPPMSIDLTFHMLRNMIHRAKMEGEREQALINRNLLDEV-NH2 [IV]”, the “secretion of ACTH and β-END-LI” value in experiment [1] (general procedure of Example III) is listed as “stimulates”. In experiment [2], the mesenteric blood flow entry is “very significant increasing”, the systemic blood pressure result was “lowering” and the vasodilatory-hypotensive activity entry is “causes vasodilatory-hypotensive activity”.

Take “H-SEEPPMSIDLTFHMLRNMIHRAKMEGER-NH2 [Example V, H-Ser-Glu-Glu-Pro-Pro-Met-Ser-Ile-Asp-Leu-Thr-Phe-His-Met-Leu-Arg-Asn-Met- Ile-His-Arg-Ala-Lys-Met-Glu-Gly-Glu-Arg-NH2]”: in experiment [2], the mesenteric blood flow result is “increasing”, the systemic blood pressure entry was “lowering” and the vasodilatory-hypotensive activity result is on record as “significant”.

With “H-SEEPPMSIDLTFHMLRNMIHRAKMEGEREQALINRNLLDEV-NH2 [Maggy UI]”, the “potency to stimulate the secretion of ACTH and β-endorphin” value in [3] was determined as 4%. In addition, the “ACTH and B-END-LI secretion in vivo” value in [4] was “stimulates”. Further, the UI activity result in experiment [5] was “evident”. Further, the blood pressure result in experiment [6] is given as “more marked fall in blood pressure”; in the experiment with mesenteric vascular bed (anaesthetized dog), “modest but sustained depression of the blood pressure”; in experiment [2] (summary statement), “substantially lower blood pressure for an extended time period”. The “dilatation of vascular beds other than the mesenteric” value in the experiment with mesenteric vascular bed (anaesthetized dog) is recorded as “does not dilate other vascular beds”. Moreover, the “activity compared with the extracted and purified peptide” value (in the experiment with mesenteric vascular bed (anaesthetized dog in vivo); in experiment [7]) was “not significantly different” in each case. The “accompanying change in blood pressure (decrease)” value with mesenteric vascular bed (setting [8]) was “about 10%”. The mesenteric flow entry in the experiment on mesenteric vascular bed (setting [8]) is listed as “significant increase”. For the same substance, in the experiment on teleost fish pituitaries, the “potency in stimulating the secretion of ACTH compared with amunine” value is given as “somewhat more potent than amunine”. The “ACTH and β-endorphin activities” value in [1] (in vitro and in vivo (summary statement)) is “stimulate ACTH and β-endorphin activities in vitro and in vivo”.

These data come from patent US4908352A, “Urotensin peptides” (The Salk Institute for Biological Studies, priority 1987, dated 1990).
